Starred links: 1 amine or outer side, 2 acyl side, 3 side chain; linkers in the order of their positions; H or OH if unused. Positions of bridges follow the written chain, without caps; N, C: chain ends. Non-standard residues stand in square brackets, D forms with d. Residues, ends and D or L forms follow the SMILES beside them. *: point of attachment. hPhe(3,5-F2-4-CF3) = N[C@@H](CCc1cc(F)c(C(F)(F)F)c(F)c1)C(=O)O; hPhe(3-Cl-4-CF3) = N[C@@H](CCc1ccc(C(F)(F)F)c(Cl)c1)C(=O)O; NMePhe(4-CF3) = CN[C@@H](Cc1ccc(C(F)(F)F)cc1)C(=O)O; Thiomorpholino(1,1-dioxo) = O=S1(=O)CCN(*)CC1; NMeAbu(4,4,4-F3) = CN[C@@H](CC(F)(F)F)C(=O)O; NMePhe(4-Cl) = CN[C@@H](Cc1ccc(Cl)cc1)C(=O)O; X59 = O=C([C@H](Cc1cc(I)ccc1Cl)N[*:1])[*:2]; X42 = Cc1ccc(I)cc1C[C@H](N[*:1])C(=O)[*:2]; NMeGly(cPent) = CN[C@H](C(=O)O)C1CCCC1; Phe(3-I) = N[C@@H](Cc1cccc(I)c1)C(=O)O; Pro(4,4-F2) = O=C(O)[C@@H]1CC(F)(F)CN1; NMeGly(cBu) = CN[C@H](C(=O)O)C1CCC1; NMeY = CN[C@@H](Cc1ccc(O)cc1)C(=O)O; NMeCha = CN[C@@H](CC1CCCCC1)C(=O)O; NMeChg = CN[C@H](C(=O)O)C1CCCCC1; NMeD = CN[C@@H](CC(=O)O)C(=O)O; NMeL = CN[C@@H](CC(C)C)C(=O)O; Chg = N[C@H](C(=O)O)C1CCCCC1; NMeV = CN[C@H](C(=O)O)C(C)C; NMeAbu = CC[C@H](NC)C(=O)O; NMeA = CN[C@@H](C)C(=O)O; NMeAib = CNC(C)(C)C(=O)O; Nle = CCCC[C@H](N)C(=O)O; Piperidide = C1CCN(*)CC1; Pra = C#CC[C@H](N)C(=O)O; Pyrrolidide = C1CCN(*)C1; Ac5c = NC1(C(=O)O)CCCC1; Aze = O=C(O)[C@@H]1CCN1; Sar = CNCC(=O)O
The compounds below were run against T1, Kras and SOS1 (biotin-tagged human Kras loaded with GDP, His-tagged human SOS1) (Homo sapiens, UniProt P01116, G12D) (assay: Protein-protein interaction inhibition between Kras and SOS1 (KrasGl2D-SOS PPI) using AlphaScreen). Conditions: AlphaScreen; biotin-tagged human Kras loaded with GDP, His-tagged human SOS1; read-out: KRAS G12D-SOS PPI IC50.
T1 construct: made in house; host or cells: E. coli (stated for Kras only)
Assay type: binding
Procedure, shortened: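 Binding between SOS1 and Kras is detected as bead-proximity luminescence: illuminate Ni-conjugated donors (680 nm), collect 520-620 nm emission from streptavidin-conjugated acceptors; Kras carries biotin and GDP loaded after purification, SOS1 carries a His tag.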

T1 sequence (P01116 1-188 isoform P01116-2 G12D): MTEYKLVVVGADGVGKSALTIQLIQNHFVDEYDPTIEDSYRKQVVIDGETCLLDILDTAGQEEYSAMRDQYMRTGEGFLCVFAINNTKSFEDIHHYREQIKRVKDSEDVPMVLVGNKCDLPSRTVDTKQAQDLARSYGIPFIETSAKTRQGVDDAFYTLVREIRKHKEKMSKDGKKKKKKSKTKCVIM

SMILES | IC50
CC[C@H](C)[C@@H]1NC(=O)[C@H](CC(C)C)N(C)C(=O)C[C@@H](C(=O)N(C)C)N(C)C(=O)[C@H](C2CCCC2)N(C)C(=O)C2(CCCC2)NC(=O)[C@@H]2CC(F)(F)CN2C(=O)[C@H](CCc2cc(F)c(C(F)(F)F)c(F)c2)NC(=O)CN(C)C(=O)[C@H](CC2CCCCC2)N(C)C(=O)[C@@H]2CCN2C(=O)[C@H](C)N(C)C1=O [Compound 1346] ([NMeL]I[NMeA][Aze][NMeCha][Sar][hPhe(3,5-F2-4-CF3)][Pro(4,4-F2)][Ac5c][NMeGly(cPent)][NMeD]-NMe2; lactam N-11) | 0.6 nM
CC[C@H](C)[C@@H]1NC(=O)[C@H](CC(C)C)N(C)C(=O)C[C@@H](C(=O)N2CCS(=O)(=O)CC2)NC(=O)[C@H](C(C)C)N(C)C(=O)C2(CCCC2)NC(=O)[C@@H]2CCCN2C(=O)[C@H](CCc2ccc(C(F)(F)F)c(Cl)c2)NC(=O)CN(C)C(=O)[C@H](CC2CCCCC2)N(C)C(=O)[C@@H]2CCN2C(=O)[C@H](C)N(C)C1=O [Compound 1349] ([NMeL]I[NMeA][Aze][NMeCha][Sar][hPhe(3-Cl-4-CF3)]P[Ac5c][NMeV]D-{Thiomorpholino(1,1-dioxo)}; lactam N-11) | 150 nM
C#CC[C@@H]1NC(=O)[C@H](Cc2cccc(I)c2)NC(=O)CN(C)C(=O)[C@H](Cc2ccc(OC)cc2)N(C)C(=O)[C@@H]2CCN2C(=O)[C@H](C)N(C)C(=O)[C@H]([C@@H](C)CC)NC(=O)[C@H](CC(C)C)N(C)C(=O)C[C@@H](C(=O)N2CCCCC2)N(C)C(=O)[C@H](CC(C)C)NC(=O)C(C)(C)N(C)C1=O [Compound 1350] ([NMeL]I[NMeA][Aze][NMeY](Me)[Sar][Phe(3-I)][Pra][NMeAib]L[NMeD]-Piperidide; lactam N-11) | 17 nM
CCCC[C@@H]1NC(=O)[C@H](Cc2cc(I)ccc2Cl)NC(=O)CN(C)C(=O)[C@H](Cc2ccc(Cl)cc2)N(C)C(=O)CN(C)C(=O)CN(C)C(=O)[C@H]([C@@H](C)CC)NC(=O)[C@H](CC(C)C)N(C)C(=O)C[C@@H](C(=O)N2CCCCC2)N(C)C(=O)[C@H](CC(C)C)NC(=O)C(C)(C)N(C)C1=O [Compound 1352] ([NMeL]I[Sar][Sar][NMePhe(4-Cl)][Sar][X59][Nle][NMeAib]L[NMeD]-Piperidide; lactam N-11) | 110 nM
CC[C@H](C)[C@@H]1NC(=O)[C@H](CC(C)C)N(C)C(=O)C[C@@H](C(=O)N2CCCCC2)N(C)C(=O)[C@H](C2CCCCC2)NC(=O)C2(CCCC2)NC(=O)[C@@H]2CCCN2C(=O)[C@H](CCc2ccc(C(F)(F)F)c(Cl)c2)NC(=O)CN(C)C(=O)[C@H](CC2CCCCC2)N(C)C(=O)CN(C)C(=O)CN(C)C1=O [Compound 1354] ([NMeL]I[Sar][Sar][NMeCha][Sar][hPhe(3-Cl-4-CF3)]P[Ac5c][Chg][NMeD]-Piperidide; lactam N-11) | 7.7 nM
CC[C@H](C)[C@@H]1NC(=O)[C@H](CC(F)(F)F)N(C)C(=O)C[C@@H](C(=O)N2CCCC2)N(C)C(=O)[C@H](C2CCCCC2)N(C)C(=O)C2(CCCC2)NC(=O)[C@@H]2CC(F)(F)CN2C(=O)[C@H](CCc2ccc(C(F)(F)F)c(Cl)c2)NC(=O)CN(C)C(=O)[C@H](CC2CCCCC2)N(C)C(=O)CN(C)C(=O)CN(C)C1=O [Compound 1357] ([NMeAbu(4,4,4-F3)]I[Sar][Sar][NMeCha][Sar][hPhe(3-Cl-4-CF3)][Pro(4,4-F2)][Ac5c][NMeChg][NMeD]-Pyrrolidide; lactam N-11) | 0.52 nM
CCCC[C@@H]1NC(=O)[C@H](Cc2cc(I)ccc2C)NC(=O)CN(C)C(=O)[C@H](Cc2ccc(OC)cc2)N(C)C(=O)[C@@H]2CCN2C(=O)[C@H](C)N(C)C(=O)[C@H]([C@@H](C)CC)NC(=O)[C@H](CC)N(C)C(=O)C[C@@H](C(=O)N2CCCCC2)N(C)C(=O)[C@H](CC(C)C)NC(=O)C(C)(C)N(C)C1=O [Compound 1358] ([NMeAbu]I[NMeA][Aze][NMeY](Me)[Sar][X42][Nle][NMeAib]L[NMeD]-Piperidide; lactam N-11) | 19 nM
C#CC[C@@H]1NC(=O)[C@H](Cc2cccc(I)c2)NC(=O)CN(C)C(=O)[C@H](Cc2ccc(C(F)(F)F)cc2)N(C)C(=O)CN(C)C(=O)CN(C)C(=O)[C@H]([C@@H](C)CC)NC(=O)[C@H](CC(C)C)N(C)C(=O)C[C@@H](C(=O)N2CCCCC2)N(C)C(=O)[C@H](CC(C)C)NC(=O)C(C)(C)N(C)C1=O [Compound 1361] ([NMeL]I[Sar][Sar][NMePhe(4-CF3)][Sar][Phe(3-I)][Pra][NMeAib]L[NMeD]-Piperidide; lactam N-11) | 24 nM
CC[C@H](C)[C@@H]1NC(=O)[C@H](C2CCC2)N(C)C(=O)C[C@@H](C(=O)N2CCCC2)N(C)C(=O)[C@H](C2CCCCC2)N(C)C(=O)C2(CCCC2)NC(=O)[C@@H]2CC(F)(F)CN2C(=O)[C@H](CCc2ccc(C(F)(F)F)c(Cl)c2)NC(=O)CN(C)C(=O)[C@H](CC2CCCCC2)N(C)C(=O)CN(C)C(=O)CN(C)C1=O [Compound 1363] ([NMeGly(cBu)]I[Sar][Sar][NMeCha][Sar][hPhe(3-Cl-4-CF3)][Pro(4,4-F2)][Ac5c][NMeChg][NMeD]-Pyrrolidide; lactam N-11) | 0.57 nM

Source: patent publication US12371454B2, “Cyclic peptide compound having Kras inhibitory action” (priority 2019, dated 2025)
